Test results as given in PMC3561363, “A Novel Retro-Inverso Peptide Inhibitor Reduces Amyloid Deposition, Oxidation and Inflammation and Stimulates Neurogenesis in the APPswe/PS1ΔE9 Mouse Model of Alzheimer’s Disease” (PLoS ONE, 2013).
Where a SMILES comes first, the peptide text is derived from it.

Key:
Aβ42 [1] = assay: Thioflavin T (ThT) assay for Aβ fibrils; type: biochemical
Method: This method was the same as that published previously. Briefly, 60 µl samples of solutions containing Aβ42 (25 µM), ThT (15 µM) and between 0 and 125 µM RI-OR2 or RI-OR2–TAT, in 10 mM phosphate buffered saline (PBS), pH 7.4, were incubated in sealed, black, clear-bottomed 384-well plates (Corning). ThT fluorescence was monitored every 10 mins (λex = 442 nm, λem = 483 nm) for 48 h at 30°C in a Biotek Synergy 2 plate reader.

Aβ42 [2] = assay: Atomic force microscopy (AFM) of Aβ42 aggregation; type: biochemical; conditions: 1∶2 molar ratio RI-OR2-TAT:Aβ42 (12.5 µM:25 µM), 24 h, PBS pH 7.4
Method: Aβ42 was incubated at 25 µM in the presence or absence of 12.5 µM RI-OR2-TAT in PBS, pH 7.4, for 24 h. Samples were diluted 1∶10 in PBS and then a 2 µl aliquot was deposited onto the surface of freshly cleaned mica and allowed to dry. Images were obtained in tapping mode using a Multimode™ SPM NanoScope IIIa microscope (Digital Instruments, New York, USA). Silicon cantilever tips measuring 125 µm long, 30 µm wide and with a tip radius <10 nm were used (Budget Sensors, Bulgaria). The resonance frequency was 300 kHz and force constants 40 N/m. All images were first order flattened and edited using WSxM 5.0 Develop 4.3 software, (Nanotech, Madrid, Spain).

[3] = tested on: SHSY-5Y neuroblastoma cells exposed to pre-aggregated Aβ42; assay: Protection against Aβ42 toxicity, LDH assay; type: cell-based; conditions: 0.5, 1, 5 or 10 µM inhibitor, 5 µM pre-aggregated Aβ42, 24 h, Optimem
Method: For cell toxicity assays, SHSY-5Y neuroblastoma cells were maintained in 10% Fetal Calf Serum supplemented Dulbecco’s Modified Eagle Medium (DMEM, Gibco) under standard mammalian cell culture conditions. The cells were transferred to sterile 96-well growth plates at 20,000 cells/well and 4 wells per condition. To test for any toxic effects of RI-OR2–TAT alone on the cells, they were left to adhere for 24 h before the addition of the inhibitor (at 12.5, 25, 50, 100 and 200 µM), in DMEM. To assess the ability of RI-OR2–TAT to protect against Aβ toxicity, the cell growth medium was changed to Optimem (Invitrogen) and Aβ42, pre-aggregated (at 100 µM) for 24 h at 25°C in PBS, was added to the cells at a concentration of 5 µM, together with various amounts (0, 0.1, 0.5, 1, 5 or 10 µM) of RI-OR2–TAT. In each case, after a further 24 h incubation period, the viability of the cells was assessed using a CytoTox 96® Non-Radioactive Cytotoxicity Assay (LDH) Assay (Promega) kit.

[4] = tested on: activated microglia (Iba1) in APP/PS1 mouse cortex; assay: Activated microglia, Iba1 immunostaining, cortex; type: in vivo; conditions: 100 nmol/kg i.p. once daily, 21 days, 10 months old APP/PS1 mice, vs saline, p<0.0001, 4 animals per group
Method: APPswe/PS1ΔE9 mice with a C57Bl/6 background (APP/PS1 mice) were obtained from the Jackson lab (http://research.jax.org/repository/alzheimers.html). […] To look at the effects of RI-OR2-TAT on mouse brain pathology (experiment 2), 8 female 10-months-old APP/PS1 mice were used. The animals were housed in single cages in a temperature controlled holding room (21.5°C±1) with 12∶12 h light and dark cycle. Food and water was available ad libitum.
For experiment 2, 4 animals were injected intraperitonially (i.p.) with 0.9% NaCl (vehicle control) and the other 4 with RI-OR2-TAT (100 nmol/kg in 0.9% NaCl) once daily, for 21 days. […]
For experiment 2 (effects on brain pathology), sections were examined for activated microglia (using anti-Iba-1 antibody), oxidative stress (anti-8-oxo-guanine antibody), immature neurons (anti-doublecourtin antibody) or total plaque load (anti-Aβ antibody). […] Oxidative stress was assessed by denaturing DNA in each section using 2N HCl and the sections were then stained for 8-oxo guanine (1∶200 dilution, MAB3560, Millipore). Young immature neurons were detected by immunostaining for doublecortin (1∶200 dilution, sc-66911, Santa Cruz Biotechnology). Total plaque load was quantified by immunostaining for β-amyloid (1∶200 dilution, Invitrogen, 71–5800).
All sections were visualized using an Axio Scope 1 fluorescence microscope (Zeiss, Germany). […]

[5] = tested on: doublecortin-expressing neurons in APP/PS1 mouse dentate gyrus; assay: Young immature neurons, doublecortin immunostaining, dentate region; type: in vivo; conditions: 100 nmol/kg i.p. once daily, 21 days, 10 months old APP/PS1 mice, vs saline, p<0.0001, 4 animals per group

For `CC(=O)N[C@H](CCCNC(=N)N)C(=O)NCC(=O)N[C@H](Cc1ccccc1)C(=O)N[C@H](Cc1ccccc1)C(=O)N[C@@H](C(=O)N[C@H](CC(C)C)C(=O)N[C@H](CCCCN)C(=O)NCC(=O)N[C@H](CCCNC(=N)N)C(=O)N[C@H](CCCNC(=N)N)C(=O)N[C@H](CCCNC(=N)N)C(=O)N[C@H](CCCNC(=N)N)C(=O)N[C@H](CCC(N)=O)C(=O)N[C@H](CCCNC(=N)N)C(=O)N[C@H](CCCNC(=N)N)C(=O)N[C@H](CCCCN)C(=O)N[C@H](CCCCN)C(=O)N[C@H](CCCNC(=N)N)C(=O)NCC(=O)N[C@H](Cc1ccc(O)cc1)C(N)=O)C(C)C` [RI-OR2-TAT, Ac-rGffvlkGrrrrqrrkkrGy-NH2] (HELM PEPTIDE1{[ac].[dR].G.[dF].[dF].[dV].[dL].[dK].G.[dR].[dR].[dR].[dR].[dQ].[dR].[dR].[dK].[dK].[dR].G.[dY].[am]}$$$$V2.0), the “ThT inhibition compared with RI-OR2” value (Aβ42 [1]; 48 h, 25 µM Aβ42, PBS pH 7.4, same molar ratios) was “slightly better inhibitor than RI-OR2”, the “ThT fluorescence after incubation of Aβ42 with inhibitor” value (Aβ42 [1]; 48 h, 30°C, 25 µM Aβ42, 15 µM ThT, 10 mM PBS pH 7.4, molar ratios 1∶1, 1∶2, 1∶4 and 1∶10 (inhibitor:Aβ42)) was “lower fluorescence” and the “inhibition of Aβ42 aggregation (Fig. 1)” value (Aβ42 [1]; ThT, 25 µM Aβ42, 48 h, figure title) was “inhibit the aggregation of Aβ42”. For the same molecule, the “inhibition of oligomer formation by AFM” value (Aβ42 [2]) was “clear inhibition of oligomer formation”, the “protection against toxic effects of pre-aggregated Aβ42” value [3] was “protected against the toxic effects” and the “reduction of number of activated microglia” value [4] was 44%. For the same molecule, the “increase in mean number of young doublecortin-expressing neurons” value [5] was 210%.
